According to patent US20150065440A1 (Progen Pharmaceuticals Limited, priority 2007, published 2015):

Experiments:
VEGF = target: T1, VEGF (Homo sapiens, UniProt P15692); assay: Growth factor binding assay (SPR solution affinity), VEGF; settings: HBS-EP buffer, 25° C.
T1 sequence (P15692 207-395): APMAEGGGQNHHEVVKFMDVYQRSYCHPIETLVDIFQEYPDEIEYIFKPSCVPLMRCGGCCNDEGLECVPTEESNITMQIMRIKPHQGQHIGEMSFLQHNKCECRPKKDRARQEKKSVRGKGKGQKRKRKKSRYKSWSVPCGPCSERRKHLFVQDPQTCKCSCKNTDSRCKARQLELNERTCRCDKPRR
How it was run: (§1)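 Kd measured by SPR solution affinity: fixed growth factor with varying ligand competing for heparin-coated sensorchip, 25 °C. Buffer HBS-EP pH 7.4 (150 mM NaCl) for FGF-1 and VEGF; FGF-2 with 0.3 M NaCl. Duplicate values averaged.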

FGF-2 = FGF-2 (Homo sapiens, UniProt P09038); assay: Growth factor binding assay (SPR solution affinity), FGF-2; settings: SPR, HBS-EP buffer containing 0.3 M NaCl, 25° C.; read-out: Kd FGF-2
How it was run: as §1

[1] = system: pooled normal human plasma; assay: Anticoagulant activity, APTT; settings: 0.1 mg/mL in normal pooled human plasma
Experimental: APTT measurements were performed on a STAGO STA-Compact Coagulation Analyser using standard protocols according to the manufacturer's instructions. Unfractionated heparin (UFH) was used as a control.

[2] = system: normal pooled human plasma; assay: Anticoagulant activity, Heptest; settings: 0.1 mg/mL in normal pooled human plasma
[3] = type: in vivo, Sprague-Dawley rats; settings: Sprague-Dawley rats, radiolabelled compound in plasma
Experimental: Adult male Sprague-Dawley (SD) rats (approx 300 g) were used for the experiment. Femoral artery cannulae was implanted and exteriorised following isoflurane anaesthesia. Jugular vein artery cannulae was implanted and exteriorized. […]. Blood samples (˜325 μL) were collected into sample tubes containing the anticoagulant sodium citrate from femoral artery catheter pre-dose and at 5, 20 minutes and 2, 5, 8, 12, 24, and 48 hours post-dose, and kept at reduced temperature (approx 4° C.) until centrifuged. Blood samples were centrifuged, plasma separated and 50 μL aliquot of the plasma transferred to a scintillation vial for counting. At the end of the experimental period animals were euthanased via a lethal overdose of pentobarbital. The level of radioactivity in the plasma was measured following mixing of samples with Packard Ultima Gold liquid scintillation counting cocktail. Counting was conducted on a Beckman liquid scintillation counter (LS6500) or Packard TriCarb liquid scintillation counter for 10 minutes per sample. Results (DPM, calculated from an in-built quench curve in the counter) were corrected for background prior to any calculations. The pharmacokinetic parameters were calculated using PK Solutions 2.0 software (Summit Research Services, Ohio, U.S.A.) and are summarised in Table 11 below.

FGF-1 = FGF-1 (Homo sapiens, UniProt P05230); assay: Growth factor binding assay (SPR solution affinity), FGF-1; settings: SPR, HBS-EP buffer, 25° C.; read-out: Kd FGF-1
HUVECs = assay: Matrigel microtubule formation assay; type: cell-based, human; settings: 10 μM, relative to controls
Experimental: (§2) Medium for the proliferation studies was prepared using EGM with 2% FBS and gentamicin only. In a later study, complete EGM was used for the VEGF groups in an attempt to enhance the proliferative index of VEGF-stimulated groups. For the tube formation assay, complete medium was used with only heparin omitted. Compounds under investigation were weighed out from powder stocks and diluted in PBS to 10 mM stock solutions and stored at −80° C. For experiments, compounds were subsequently diluted in EBM-2 medium (supplemented with 2% FBS and gentamicin) to various working concentration as required.
The tube formation assay was performed essentially as described by Malinda et al., with modifications.^41 HUVECs in the fourth or fifth passage at 70-80% confluence were harvested and resuspended in Lonza endothelial growth medium (EGM2) containing all supplements as directed by manufacturer, except heparin, at a cell density of 4×10^5 cells per mL. For each set of triplicate wells, 200 μL of cells (4×10^5/mL) were treated with an equal volume of compound to obtain final concentrations of 10, 50 or 100 μM (thus ensuring 1×300 μL are available for each condition). A 100 μL aliquot of cells was then plated onto 96-well plates pre-coated with growth factor reduced Matrigel™ (50 μL for 30 min followed by a further 30 μL for 1 h) and incubated for 18-22 h. Tube formation was examined by phase-contrast microscopy and images were collected using an Olympus C5050 digital camera. Tube formation inhibition was quantitated manually from images by recording the total number of nodes connecting 3 or more tubules. Untreated HUVECs were used as a control for normal cell growth and tube formation in Matrigel.

rat aortic tissue = assay: Ex vivo angiogenic sprout assay (rat aortic angiogenesis assay); type: cell-based, Sprague Dawley rats
Experimental: Explants from rat aortas were prepared by a modification of protocols previously described^42-54. In this model, the rat aortic endothelium exposed to a three dimensional matrix of ECM-derived proteins (Matrigel™), switches to a microvascular phenotype, generating branching networks of microvessels.
Briefly, thoracic aortas were excised from 2- to 4-month old Sprague Dawley rats and trimmed of remaining fat and connective tissue. Great care was taken at every stage to reduce physical damage of the aorta. Tissue was transferred to complete EBM-2 media (Cambrex) containing 2% FCS and all Singlequots™ (Cambrex) reagents except for heparin. Meanwhile, Matrigel™ (BD Biosciences) was allowed to cool on ice and once in a liquid form, 180 μL was pipetted into 48-well tissue culture plates (Nunc). The plates were incubated at 37° C. for 30 min to allow Matrigel™ to solidify.
Aortas were prepared by cutting 1 mm ring sections and then being bisected. Aortic segments were then carefully placed on top on the Matrigel™ in the centre of each well and once orientated as required, 60 μL of extra Matrigel™ was placed on top and the plate was returned to the incubator for a further 20 min. Each well was then supplemented with 1.0 mL media in the absence (control) or presence of test compounds usually at two concentrations within the range of 1-50 μM, depending on the particular compound/experiment. Cultures were replenished as appropriate every 48 h and scoring of microvessels was carried out at various timepoints up to 8-10 days. The extent of microvessel sprouting was determined by employing a scoring system from 0-5, where 0=no microvessels to 5=diffuse angiogenesis as previously described^45. Sprouting vessels were photographed using the 4× objective with an Olympus C-7070 camera and an adaptor for the eyepiece.
In some instances, to determine the potential toxicity of compounds in this assay, the viability of the tissue was assessed by withdrawing the compound/media from the culture on day 6 or 7 and adding complete media with VEGF (typically 10 ng/mL) for up to an additional 7 days. In the absence of toxicity, the viable tissue should sprout microvessels in response to the exogenous growth factor.
The inhibitory effect of compounds of the present invention on angiogenesis was assayed using the angiogenic sprout/microvessel formation (rat aortic) assay described above. Embedding of the rat aortic tissue in Matrigel™ in the absence of any inhibitor (control) yielded extensive angiogenic sprouting (as a score of 5 indicates diffuse angiogenesis) as illustrated by FIG. 1.

[4] = target: T2, recombinant human heparanase (Homo sapiens, UniProt Q9Y251); assay: Heparanase inhibition assay (fondaparinux cleavage, WST-1); settings: read-out: Ki Heparanase; IC50 converted into Ki; fondaparinux 100 μM, pH 5.0
T2 sequence (Q9Y251 158-543 limits assumed): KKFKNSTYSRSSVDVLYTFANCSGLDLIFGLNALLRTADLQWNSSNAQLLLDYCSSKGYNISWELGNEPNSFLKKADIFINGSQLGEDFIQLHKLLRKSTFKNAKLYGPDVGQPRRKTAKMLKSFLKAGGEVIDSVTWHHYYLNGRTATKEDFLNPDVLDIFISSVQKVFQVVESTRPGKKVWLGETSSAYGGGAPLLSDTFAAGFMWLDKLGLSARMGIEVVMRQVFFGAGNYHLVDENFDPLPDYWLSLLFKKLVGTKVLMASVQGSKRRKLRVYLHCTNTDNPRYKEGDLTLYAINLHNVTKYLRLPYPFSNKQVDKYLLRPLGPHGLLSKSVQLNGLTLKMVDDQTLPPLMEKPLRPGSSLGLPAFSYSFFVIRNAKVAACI
T2 sequence (Q9Y251 36-109 limits assumed): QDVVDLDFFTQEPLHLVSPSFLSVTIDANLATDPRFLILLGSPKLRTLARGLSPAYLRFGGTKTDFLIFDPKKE
Experimental: In the presence of an inhibitor the catalytic activity of heparanase is reduced, and the amount of disaccharide produced and the optical density of the solution are both decreased. The percent inhibition and IC50 of the inhibitor are determined from measurement of the optical density (OD) over a range of inhibitor concentrations.
Assays were carried out in 40 mM sodium acetate buffer, pH 5.0, as follows. […] A blue colour was developed by incubation of the plates at 60° C. for 60 min. […] The IC50 value for each compound was evaluated and converted into a Ki (inhibition constant) using the expression

[5] = system: HUVEC proliferation induced by FGF-1; assay: Growth factor induced endothelial cell proliferation assay, FGF-1; type: cell-based, human; settings: 72 h; read-out: FGF-1 (IC50) inhibition of HUVEC proliferation
Description: (§3) HUVEC cells were maintained and subcultured according to standard cell culture protocols essentially as described by Lonza. Briefly, cells were maintained in Lonza endothelial growth media (EGM) with recommended supplements and growth factors (VEGF, FGF2, EFG, IGF, hydrocortisone, fetal bovine serum (FBS), ascorbic acid, heparin and gentamicin). Cells were subcultured when they reached 70-80% confluence by trypsinisation and reseeding in fresh growth medium in new culture vessels at 2500 to 5000 cells/cm^2 of vessel surface area. Cell counts were performed using a haemocytometer and viable cells were visualized with trypan blue.
as §2
(§4) In the first of a series of experiments, the assay was further optimized by examining the cell density and growth factor concentration required to induce maximal proliferation by growth factors. Briefly, 100 μL of cells was added to each well at concentrations between 1-3×10^3 per well. Growth factors and test compounds were then added in 50 μL volumes at specified concentrations to obtain a final volume of 200 μL. Following incubation for 70 h, 20 μL of the CellTitre 96® Aqueous One Solution Cell Proliferation Assay (Promega) was added for 2 h prior to reading the absorbance at 490 nm to obtain OD values.

[6] = system: HUVEC proliferation induced by FGF-2; assay: Growth factor induced endothelial cell proliferation assay, FGF-2; type: cell-based, human; settings: 72 h; read-out: FGF-2 (IC50) inhibition of HUVEC proliferation
Description: as §3, §2, §4

[7] = system: HUVEC proliferation induced by VEGF; assay: Growth factor induced endothelial cell proliferation assay, VEGF; type: cell-based, human; settings: 72 h; read-out: VEGF (IC50) inhibition of HUVEC proliferation
Description: as §3, §2, §4

FGF-2, sequence (P09038 143-288, species assumed): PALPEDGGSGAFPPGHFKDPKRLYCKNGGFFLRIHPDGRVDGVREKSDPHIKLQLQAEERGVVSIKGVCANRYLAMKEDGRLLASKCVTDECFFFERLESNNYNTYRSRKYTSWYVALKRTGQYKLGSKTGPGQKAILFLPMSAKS
FGF-1, sequence (P05230 whole entry, species assumed): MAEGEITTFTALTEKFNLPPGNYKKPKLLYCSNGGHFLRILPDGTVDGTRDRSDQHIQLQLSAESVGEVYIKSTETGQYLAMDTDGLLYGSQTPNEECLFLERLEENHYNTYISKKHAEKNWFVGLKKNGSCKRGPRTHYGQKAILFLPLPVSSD

Row | Kd (VEGF) [nM] | Kd (FGF-2) [nM] | Half-life (iv) ([3]; intra venous) [h] | Half-life (sc) ([3]; subcutaneous) [h] | Ki [4] [nM] | SMILES | APTT [1] [s] | Heptest [2] [s] | Kd (FGF-1) [nM] | inhibition at 10 µM (HUVECs; Homo sapiens, HUVEC, read-out: Microtubule Formation % inhibition at 10 μM) [%] | inhibition at 10 µM (rat aortic tissue; Rattus norvegicus) [%] | IC50 [5] [nM] | IC50 [6] [nM] | IC50 [7] [nM] | Microtubule Formation % inhibition at 10 μM (HUVECs) [%] | % Inhibition of Angiogenesis (10 μM) (rat aortic tissue; 10 μM) [%]
1 | 28.9 ± 2.3 | 390 ± 80 | 17.3 | 21.3 | – | CC(C)CCCC(C)C1CCC2C3CCC4CC(OC5OC(COS(=O)(=O)O)C(OC6OC(COS(=O)(=O)O)C(OC7OC(COS(=O)(=O)O)C(OC8OC(COS(=O)(=O)O)C(OS(=O)(=O)O)C(OS(=O)(=O)O)C8OS(=O)(=O)O)C(OS(=O)(=O)O)C7OS(=O)(=O)O)C(OS(=O)(=O)O)C6OS(=O)(=O)O)C(OS(=O)(=O)O)C5OS(=O)(=O)O)CCC4(C)C3CCC12C [Compound 65, 3β-Cholestanyl 2,3,4,6-tetra-O-sodium sulfonato-α-D-glucopyranosyl-(1→4)-2,3,6-tri-O-sodium sulfonato-α-D-glucopyranosyl-(1→4)-2,3,6-tri-O-sodium sulfonato-α-D-glucopyranosyl-(1→4)-2,3,6-tri-O-sodium sulfonato-β-D-glucopyranoside] | 71.9 | 28.6 | – | – | – | – | – | – | – | –
2 | 380 ± 110 | 530 ± 50 | – | – | 11.3 ± 0.4 | CCCCCCCCCCCCCCCCCC(=O)NCCCO[C@@H]1O[C@H](COS(=O)(=O)[O-])[C@@H](O[C@H]2O[C@H](COS(=O)(=O)[O-])[C@@H](O[C@H]3O[C@H](COS(=O)(=O)[O-])[C@@H](OS(=O)(=O)[O-])[C@H](OS(=O)(=O)[O-])[C@H]3OS(=O)(=O)[O-])[C@H](OS(=O)(=O)[O-])[C@H]2OS(=O)(=O)[O-])[C@H](OS(=O)(=O)[O-])[C@H]1OS(=O)(=O)[O-].[Na+].[Na+].[Na+].[Na+].[Na+].[Na+].[Na+].[Na+].[Na+].[Na+] [Compound 123, 3-Stearamidopropyl 2,3,4,6-tetra-O-sulfo-α-D-glucopyranosyl-(1→4)-2,3,6-tri-O-sulfo-α-D-glucopyranosyl-(1→4)-2,3,6-tri-O-sulfo-β-D-glucopyranoside, decasodium salt] | 51.1 | 24.9 | 32.2 ± 2.3 | 33 | 23 | – | – | – | – | –

Row | SMILES | Kd (VEGF) [nM] | Kd (FGF-2) [nM] | Half-life (iv) ([3]; intra venous) [h] | Half-life (sc) ([3]; subcutaneous) [h] | Ki [4] [nM] | APTT [1] [s] | Heptest [2] [s] | Kd (FGF-1) [nM] | inhibition at 10 µM (HUVECs; Homo sapiens, HUVEC, read-out: Microtubule Formation % inhibition at 10 μM) [%] | inhibition at 10 µM (rat aortic tissue; Rattus norvegicus) [%] | IC50 [5] [nM] | IC50 [6] [nM] | IC50 [7] [nM] | Microtubule Formation % inhibition at 10 μM (HUVECs) [%] | % Inhibition of Angiogenesis (10 μM) (rat aortic tissue; 10 μM) [%]
3 | CC(C)CCC[C@@H](C)[C@H]1CC[C@H]2[C@@H]3CCC4CC(OCCCNC(=S)N[C@@H]5O[C@H](COS(=O)(=O)[O-])[C@@H](O[C@H]6O[C@H](COS(=O)(=O)[O-])[C@@H](O[C@H]7O[C@H](COS(=O)(=O)[O-])[C@@H](OS(=O)(=O)[O-])[C@H](OS(=O)(=O)[O-])[C@H]7OS(=O)(=O)[O-])[C@H](OS(=O)(=O)[O-])[C@H]6OS(=O)(=O)[O-])[C@H](OS(=O)(=O)[O-])[C@H]5OS(=O)(=O)[O-])CC[C@]4(C)[C@H]3CC[C@]12C.[Na+].[Na+].[Na+].[Na+].[Na+].[Na+].[Na+].[Na+].[Na+].[Na+] (stereo partly drawn) [Compound 139, 1-[(Cholestan-3-yloxy)propyl]-3-[2,3,4,6-tetra-O-sulfo-α-D-glucopyranosyl-(1→4)-2,3,6-tri-O-sulfo-α-D-glucopyranosyl-(1→4)-2,3,6-tri-O-sulfo-β-D-glucopyranoside]thiourea, decasodium salt] | 379 ± 13 | 880 ± 110 | – | – | – | – | – | 72 ± 12 | – | – | 2160 | 1500 | 2310 | 36 | 92
